Results published in patent publication US8128967B2, “Polyphenol coxib combinations and methods” (Mitsui Norin Co., Ltd., priority 2005, dated 2012).
Several values for one entry are separate records, joined by “and”; a condition that tells them apart may be missing. Equal values may be shown once.

Experiments:
[1] = system: cisplatin-induced lung tumors; experiment: Experiment 2: celecoxib with EGCG or polyphenon E on cisplatin-induced lung tumor incidence and multiplicity; assay type: in vivo, female A/J mice; settings: 0.1% EGCG or 0.17% polyphenon E in drinking water where combined; for INCIDENCE: killed at 26 weeks, CDDP control 95%
[2] = system: cisplatin-induced lung tumors; experiment: Experiment 1: Celecoxib with EGCg or Polyphenon E on cisplatin-induced lung tumor incidence and multiplicity; assay type: in vivo, A/J mice; settings: for INCIDENCE: CDDP control 0.9; for MULTIPLICITY: CDDP control 2.2
Procedure: Similarly, CDDP+Cox (number)+Polyphenon E refers to animals treated with Cisplatin, Polyphenon E, and Celecoxib. Each group of animals had 10 mice.
As control, A/J mice were treated with CDDP using standard protocols well known in the art and as further described below.
Treatment with EGCg alone (see below) was performed in the animals of group 2. […] Low-dose and high-dose effects of Celecoxib were tested in groups 3 and 4 in which the COX-2 inhibitor was mixed with the diet at a concentration of either 150 ppm or 1,500 ppm as indicated by the numbers in parentheses (see below).
The effect of EGCg in combination with high- and low-dose COX-2 inhibitor was tested in groups 5 and 6 (see below). […] For these experiments, EGCg was dissolved in drinking water at 0.1% (wt/vol) concentration.
The effect of Polyphenon E in combination with high- and low-dose COX-2 inhibitor was tested in groups 7 and 8 (see below). […] For these experiments, Polyphenon E was dissolved in drinking water at 0.17% concentration.

[3] = Experiment 2: cisplatin-induced weight loss; settings: low-dose celecoxib; p<0.05
Procedure: In this study, female A/J mice (4 weeks old) were divided into seven groups: group 1, no treatment; group 2, low-dose celecoxib (150 mg/kg diet); group 3, high-dose celecoxib (1500 mg/kg diet); group 4, 0.1% EGCG+low-dose celecoxib treatment (150 mg/kg diet); group 5, 0.1% EGCG+high-dose celecoxib (1500 mg/kg diet); group 6, 0.17% polyphenon E+low-dose celecoxib (150 mg/kg diet); group 7, 0.17% polyphenon E+high-dose celecoxib (1500 mg/kg diet). All mice were treated with cisplatin (1.62 mg/kg of body weight, i.p.) once a week for 10 weeks from 7 to 16 weeks of age. Mice in groups 2, 3, 4, 5, 6, and 7 were exclusively fed experimental diet prepared by mixing celecoxib. EGCG and polyphenon E were provided in drinking water. Seven groups of mice were killed at 26 weeks after treatment.

[4] = system: cisplatin-induced lung tumors; settings: administered as individual compounds; Carcinogenesis 21(5):915, 2000; Proc AACR 44 #4920; cited from earlier work
[5] = celecoxib 150 ppm in diet (low dose), EGCg 0.1% or Polyphenon E 0.17% in drinking water where combined
[6] = celecoxib 1,500 ppm in diet (high dose), EGCg 0.1% or Polyphenon E 0.17% in drinking water where combined
[7] = EGCg 0.1% (wt/vol) in drinking water, no celecoxib

Compound | MULTIPLICITY (number of tumors/mouse, mean±SD in text) ([1]; high-dose celecoxib 1500 mg/kg diet, CDDP control 2.2) | MULTIPLICITY (number of tumors/mouse, mean±SD in text) ([1]; high-dose celecoxib 1500 mg/kg diet, CDDP control 2.2, listed as Celecoxib) | INCIDENCE ([1]; high-dose celecoxib 1500 mg/kg diet) | INCIDENCE ([1]; high-dose celecoxib 1500 mg/kg diet, listed as Celecoxib) | MULTIPLICITY (number of tumors/mouse, mean±SD in text) ([1]; low-dose celecoxib 150 mg/kg diet, CDDP control 2.2) | MULTIPLICITY (number of tumors/mouse, mean±SD in text) ([1]; low-dose celecoxib 150 mg/kg diet, CDDP control 2.2, listed as Celecoxib) | INCIDENCE ([1]; low-dose celecoxib 150 mg/kg diet) | INCIDENCE ([1]; low-dose celecoxib 150 mg/kg diet, listed as Celecoxib) | INCIDENCE [2, 5] | MULTIPLICITY [2, 5] | INCIDENCE [2, 6] | MULTIPLICITY [2, 6] | cisplatin-induced weight loss (in words) [3] | inhibition of cisplatin-induced lung tumors (in words) [4] | INCIDENCE [2, 7] | MULTIPLICITY [2, 7] | effect on tumor incidence (in words) ([2]; EGCg alone) | reduction of tumor multiplicity versus control ([2]; EGCg alone) | mice that developed tumors (tumor incidence) ([2]; EGCg alone, control 90%)
Cc1ccc(-c2cc(C(F)(F)F)nn2-c2ccc(S(N)(=O)=O)cc2)cc1 [Cox, celecoxib] | 1.7 tumors/mouse | 1.7±1.2 tumors/mouse | 85.7% | 85.7% | 2.1 tumors/mouse | 2.1±1.3 tumors/mouse | 95% | 95% | 0.9 | 2.1 | 0.91 | 1.91 | significantly prevented |  |  |  |  |  | 
(−)-epigallocatechin gallate [EGCg] |  |  |  |  |  |  |  |  |  |  |  |  |  | partially inhibits | 0.8 | 1.2 | could not significantly reduce tumor incidence | 45% and ~50% | 80%
